Data published in US10294202B2, “Pyrrolidinones as herbicides” (FMC Corporation, priority 2013, dated 2019).

Tests used:
wheat = test: Test A pre-/postemergence herbicide test; assay type: in vivo, Triticum aestivum; details: Postemergence
Method in brief: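 Both application timings used compounds in a non-phytotoxic solvent plus surfactant. Pre-emergence: soil sprayed directly after seeding into loam/sand. Post-emergence: foliage of 2–10 cm seedlings (1–2 leaves) sprayed. Injury rated ~10 days later, 0–100.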

corn = test: Test C pre-/postemergence herbicide test; assay type: in vivo, Zea mays
Method in brief: (§1)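 Herbicidal effect was judged by eye 13 to 15 days after treatment in the greenhouse, using a 0–100 scale against controls. Chemicals in a non-phytotoxic solvent with surfactant were sprayed onto planted loam/sand soil or onto plants 2 to 18 cm tall in a peat-based growing medium.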

crabgrass, large = test: Test C pre-/postemergence herbicide test; assay type: in vivo, Digitaria sanguinalis
Method in brief: as §1

oat, wild = test: Test C pre-/postemergence herbicide test; assay type: in vivo, Avena fatua; details: Postemergence
Method in brief: as §1

galium = test: Test C pre-/postemergence herbicide test; assay type: in vivo, Galium aparine
Method in brief: as §1

soybean = test: Test C pre-/postemergence herbicide test; assay type: in vivo, Glycine max
Method in brief: as §1

ragweed = test: Test C pre-/postemergence herbicide test; assay type: in vivo, Ambrosia elatior
Method in brief: as §1

oilseed rape = test: Test C pre-/postemergence herbicide test; assay type: in vivo, Brassica napus
Method in brief: as §1

blackgrass = test: Test C pre-/postemergence herbicide test; assay type: in vivo, Alopecurus myosuroides
Method in brief: as §1

johnsongrass = test: Test C pre-/postemergence herbicide test; assay type: in vivo, Sorghum halepense
Method in brief: as §1

ryegrass, Italian = test: Test C pre-/postemergence herbicide test; assay type: in vivo, Lolium multiflorum
Method in brief: as §1

waterhemp = test: Test C pre-/postemergence herbicide test; assay type: in vivo, Amaranthus rudis
Method in brief: as §1

[1] = 125 g ai/ha, visual rating on 0 to 100 scale (0 no effect, 100 complete control), approx. 10 days
[2] = 500 g ai/ha, 0 to 100 scale (0 no effect, 100 complete control)
[3] = Postemergence, 31 g ai/ha, scale 0 to 100 (0 no effect, 100 complete control)
[4] = Postemergence, 62 g ai/ha, scale 0 (no effect) to 100 (complete control)
[5] = Postemergence, 125 g ai/ha, scale 0 to 100 (0 no effect, 100 complete control)
[6] = Postemergence, 250 g ai/ha, scale 0 to 100 (0 no effect, 100 complete control)
[7] = Preemergence, 31 g ai/ha, scale 0 to 100, 0 is no effect and 100 is complete control
[8] = Preemergence, 62 g ai/ha, scale 0 to 100 (0 no effect, 100 complete control)
[9] = Preemergence, 125 g ai/ha, scale 0 to 100 (0 no effect, 100 complete control)
[10] = 31 g ai/ha, scale 0 to 100 (0 no effect, 100 complete control)
[11] = 62 g ai/ha, scale 0 (no effect) to 100 (complete control)
[12] = 125 g ai/ha, scale 0 to 100 (0 no effect, 100 complete control)
[13] = 250 g ai/ha, scale 0 to 100 (0 no effect, 100 complete control)
[14] = Preemergence, 125 g ai/ha, scale 0 to 100

CN1CC(c2ccc(C(F)(F)F)cc2)C(C(=O)Nc2cccc(F)c2F)C1=O (stereo not shown) [Compound 306]
70: Plant response rating, Oilseed Rape (oilseed rape; [6]) | Oilseed Rape plant response rating (oilseed rape; [8]) | Plant response rating (scale of 0 to 100), Ryegrass, Italian (ryegrass, Italian; Preemergence, 250 g ai/ha)
98: Plant response rating (scale of 0 to 100), Crabgrass, Large (crabgrass, large; Preemergence, 250 g ai/ha)
0: Plant response rating, Corn (corn; [3]) | Plant response rating, Corn (corn; [4]) | Plant response rating, Corn (corn; [5]) | Plant response rating, Oat, Wild (oat, wild; [10]) | Plant response rating, Oat, Wild (oat, wild; [11]) | Plant response rating, Oat, Wild (oat, wild; [12]) | Plant response rating, Soybean (soybean; [3]) | Soybean plant response rating (soybean; [8]) | Plant response rating, Soybean (soybean; [9]) | Plant response rating (scale of 0 to 100), Soybean (soybean; Preemergence, 250 g ai/ha) | Plant response rating, Oilseed Rape (oilseed rape; [3]) | Plant response rating, Blackgrass (blackgrass; [3]) | Plant response rating, Blackgrass (blackgrass; [4]) | Blackgrass plant response rating (blackgrass; [7]) | Plant response rating, Johnsongrass (johnsongrass; [3]) | Plant response rating, Johnsongrass (johnsongrass; [4]) | Plant response rating, Johnsongrass (johnsongrass; [5]) | Plant response rating, Johnsongrass (johnsongrass; [6]) | Plant response rating, Ryegrass, Italian (ryegrass, Italian; [3]) | Plant response rating, Ryegrass, Italian (ryegrass, Italian; [4])
55: Plant response rating, Ragweed (ragweed; [4]) | Johnsongrass plant response rating (johnsongrass; [8]) | Plant response rating, Ryegrass, Italian (ryegrass, Italian; [9])
85: Plant response rating, Crabgrass, Large (crabgrass, large; [6]) | Plant response rating, Ragweed (ragweed; [6]) | Plant response rating (scale of 0 to 100), Johnsongrass (johnsongrass; Preemergence, 250 g ai/ha) | Waterhemp plant response rating (waterhemp; [8]) | Plant response rating, Waterhemp (waterhemp; [9])
30: Blackgrass plant response rating (blackgrass; [8])
45: Plant response rating, Crabgrass, Large (crabgrass, large; [4])
80: Plant response rating, Corn (corn; [9]) | Plant response rating, Ragweed (ragweed; [5]) | Plant response rating (scale of 0 to 100), Ragweed (ragweed; Preemergence, 250 g ai/ha) | Plant response rating, Johnsongrass (johnsongrass; [9]) | Plant response rating, Waterhemp (waterhemp; [5]) | Plant response rating, Waterhemp (waterhemp; [6])
60: Plant response rating, Wheat (wheat; [2]) | Corn plant response rating (corn; [8]) | Galium plant response rating (galium; [8]) | Plant response rating, Ragweed (ragweed; [3]) | Plant response rating, Blackgrass (blackgrass; [9])
5: Plant response rating, Oat, Wild (oat, wild; [13]) | Plant response rating, Soybean (soybean; [4]) | Plant response rating, Soybean (soybean; [5]) | Plant response rating, Soybean (soybean; [6]) | Plant response rating, Blackgrass (blackgrass; [5]) | Plant response rating, Blackgrass (blackgrass; [6]) | Plant response rating, Ryegrass, Italian (ryegrass, Italian; [5])
75: Plant response rating (scale of 0 to 100), Corn (corn; Preemergence, 250 g ai/ha) | Plant response rating, Crabgrass, Large (crabgrass, large; [5]) | Ragweed plant response rating (ragweed; [8]) | Plant response rating, Ragweed (ragweed; [9]) | Plant response rating, Oilseed Rape (oilseed rape; [9]) | Plant response rating (scale of 0 to 100), Oilseed Rape (oilseed rape; Preemergence, 250 g ai/ha)
95: Crabgrass, Large plant response rating (crabgrass, large; [8]) | Plant response rating, Crabgrass, Large (crabgrass, large; [9])
90: Crabgrass, Large plant response rating (crabgrass, large; [7]) | Galium plant response rating (galium; [7]) | Plant response rating, Galium (galium; [9]) | Plant response rating (scale of 0 to 100), Galium (galium; Preemergence, 250 g ai/ha) | Plant response rating (scale of 0 to 100), Blackgrass (blackgrass; Preemergence, 250 g ai/ha) | Plant response rating (scale of 0 to 100), Waterhemp (waterhemp; Preemergence, 250 g ai/ha)
20: Plant response rating, Corn (corn; [6]) | Plant response rating, Ryegrass, Italian (ryegrass, Italian; [6])
65: Plant response rating, Waterhemp (waterhemp; [3]) | Plant response rating, Waterhemp (waterhemp; [4])
10: Plant response rating, Crabgrass, Large (crabgrass, large; [3])
40: Corn plant response rating (corn; [7]) | Plant response rating, Oilseed Rape (oilseed rape; [5]) | Ryegrass, Italian plant response rating (ryegrass, Italian; [8])
50: Plant response rating, Wheat (wheat; [1]) | Plant response rating, Oilseed Rape (oilseed rape; [4]) | Oilseed Rape plant response rating (oilseed rape; [7])
35: Johnsongrass plant response rating (johnsongrass; [7])

O=C1NCC(c2cccc(Br)c2)C1C(=O)Nc1ccc(F)c(F)c1F (stereo not shown) [Compound 310]
40: Plant response rating, Oilseed Rape (oilseed rape; [6]) | Plant response rating, Oilseed Rape (oilseed rape; [14])
70: Plant response rating, Crabgrass, Large (crabgrass, large; [5]) | Plant response rating, Crabgrass, Large (crabgrass, large; [6]) | Plant response rating (scale of 0 to 100), Galium (galium; Preemergence, 250 g ai/ha)
55: Plant response rating, Corn (corn; [14]) | Plant response rating (scale of 0 to 100), Corn (corn; Preemergence, 250 g ai/ha)
95: Plant response rating, Crabgrass, Large (crabgrass, large; [14]) | Plant response rating (scale of 0 to 100), Crabgrass, Large (crabgrass, large; Preemergence, 250 g ai/ha)
75: Plant response rating (scale of 0 to 100), Johnsongrass (johnsongrass; Preemergence, 250 g ai/ha)
65: Plant response rating, Galium (galium; [6])
0: Plant response rating, Corn (corn; [3]) | Plant response rating, Corn (corn; [4]) | Corn plant response rating (corn; [7]) | Corn plant response rating (corn; [8]) | Plant response rating, Crabgrass, Large (crabgrass, large; [3]) | Plant response rating, Oat, Wild (oat, wild; [10]) | Plant response rating, Oat, Wild (oat, wild; [11]) | Plant response rating, Oat, Wild (oat, wild; [12]) | Plant response rating, Oat, Wild (oat, wild; [13]) | Galium plant response rating (galium; [7]) | Galium plant response rating (galium; [8]) | Plant response rating, Galium (galium; [14]) | Plant response rating, Soybean (soybean; [5]) | Plant response rating, Soybean (soybean; [6]) | Soybean plant response rating (soybean; [8]) | Plant response rating, Soybean (soybean; [14]) | Plant response rating (scale of 0 to 100), Soybean (soybean; Preemergence, 250 g ai/ha) | Ragweed plant response rating (ragweed; [8]) | Plant response rating, Oilseed Rape (oilseed rape; [3]) | Plant response rating, Oilseed Rape (oilseed rape; [4]) | Plant response rating, Oilseed Rape (oilseed rape; [5]) | Oilseed Rape plant response rating (oilseed rape; [7]) | Plant response rating, Blackgrass (blackgrass; [3]) | Plant response rating, Blackgrass (blackgrass; [4]) | Blackgrass plant response rating (blackgrass; [7]) | Plant response rating, Johnsongrass (johnsongrass; [3]) | Plant response rating, Johnsongrass (johnsongrass; [4]) | Plant response rating, Johnsongrass (johnsongrass; [5]) | Johnsongrass plant response rating (johnsongrass; [7]) | Johnsongrass plant response rating (johnsongrass; [8]) | Plant response rating, Ryegrass, Italian (ryegrass, Italian; [3]) | Plant response rating, Ryegrass, Italian (ryegrass, Italian; [4]) | Plant response rating, Ryegrass, Italian (ryegrass, Italian; [5]) | Ryegrass, Italian plant response rating (ryegrass, Italian; [8]) | Waterhemp plant response rating (waterhemp; [8])
85: Plant response rating (scale of 0 to 100), Oilseed Rape (oilseed rape; Preemergence, 250 g ai/ha)
25: Plant response rating (scale of 0 to 100), Ryegrass, Italian (ryegrass, Italian; Preemergence, 250 g ai/ha) | Plant response rating, Waterhemp (waterhemp; [14]) | Plant response rating (scale of 0 to 100), Waterhemp (waterhemp; Preemergence, 250 g ai/ha)
30: Plant response rating, Wheat (wheat; [1]) | Plant response rating, Corn (corn; [6])
90: Crabgrass, Large plant response rating (crabgrass, large; [7]) | Crabgrass, Large plant response rating (crabgrass, large; [8])
5: Plant response rating, Ragweed (ragweed; [14]) | Oilseed Rape plant response rating (oilseed rape; [8]) | Plant response rating, Blackgrass (blackgrass; [5]) | Plant response rating, Blackgrass (blackgrass; [6]) | Blackgrass plant response rating (blackgrass; [8]) | Plant response rating, Johnsongrass (johnsongrass; [6]) | Plant response rating, Ryegrass, Italian (ryegrass, Italian; [6]) | Plant response rating, Waterhemp (waterhemp; [3])
20: Plant response rating, Ragweed (ragweed; [5]) | Plant response rating, Ryegrass, Italian (ryegrass, Italian; [14])
35: Plant response rating, Galium (galium; [3]) | Plant response rating (scale of 0 to 100), Ragweed (ragweed; Preemergence, 250 g ai/ha)
50: Plant response rating, Wheat (wheat; [2]) | Plant response rating, Galium (galium; [4]) | Plant response rating, Galium (galium; [5]) | Plant response rating, Blackgrass (blackgrass; [14])
10: Plant response rating, Crabgrass, Large (crabgrass, large; [4]) | Plant response rating, Soybean (soybean; [3]) | Plant response rating, Soybean (soybean; [4]) | Plant response rating, Ragweed (ragweed; [3]) | Plant response rating, Ragweed (ragweed; [4]) | Plant response rating, Waterhemp (waterhemp; [4]) | Plant response rating, Waterhemp (waterhemp; [5]) | Plant response rating, Waterhemp (waterhemp; [6])
60: Plant response rating, Corn (corn; [5]) | Plant response rating, Ragweed (ragweed; [6])
45: Plant response rating (scale of 0 to 100), Blackgrass (blackgrass; Preemergence, 250 g ai/ha) | Plant response rating, Johnsongrass (johnsongrass; [14])
